# Where two headings read alike, the source gives them in different places.
# How the values were obtained:
# human erythrocytes = experiment: Hemolytic activity against human erythrocytes; format: cell-based; settings: for ED50, Erythrocytes (hemolytic activity): 1 h at 37 °C
# Procedure: A total of 450 g of human blood (B(III) Rh+) was used to obtain erythrocytes by centrifuging three times for 5 min with phosphate-buffered saline (PBS) (pH 7.4) at 4 °C on a centrifuge LABOFUGE 400R (Heraeus, Hanau, Germany). Ice-cold PBS (pH 7.4) was used for resuspension of erythrocyte residue to a final optical density of 1.5 at 700 nm. Then, 20 µL of tested compound solutions or control (cucumarioside A0-1 [15]) were added to 180 µL of erythrocyte suspension in V-bottom 96-well plates and incubated for 1 h at 37 °C. After centrifugation (900 g, 10 min, laboratory centrifuge LMC-3000 (Biosan, Riga, Latvia)), 100 µL of supernatant was transferred into new flat plates. The values of erythrocyte lysis were measured on microplate photometer Multiskan FC (Thermo Fisher Scientific, Waltham, MA, USA) at λ = 570 nm as hemoglobin concentration in supernatant. […] All the experiments were carried out in triple repetitions, p < 0.05.
# [1] = test system: MCF-10A non-tumor mammary epithelial cell line; experiment: in vitro; format: cell-based, human
# [2] = test system: MCF-7 human breast cancer cells; experiment: cells; format: cell-based; settings: for Selectivity Index (SI), MCF-7: ratio of IC50 for healthy (MCF-10A) and MCF-7 cells;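 for all read-outs here: IC50 values, including those behind the selectivity ratio, derive from formazan absorbance at 570 nm, tested in triplicate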
# [3] = test system: T-47D human breast cancer cells; experiment: cells; format: cell-based; settings: for Selectivity Index (SI), T-47D: ratio of IC50 for healthy (MCF-10A) and T-47D cells;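 for all read-outs here: cell viability read as absorbance of formazan dye at 570 nm, each experiment run in triplicate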
# [4] = test system: MDA-MB-231 triple-negative breast cancer cells; experiment: cells; format: cell-based, human; settings: for Selectivity Index (SI), MDA-MB-231: ratio of IC50 for healthy (MCF-10A) and MDA-MB-231 cells
# [5] = MTT assay, MCF-10A, read-out: Cytotoxicity, IC50, MCF-10A
# [6] = MTT assay, MCF-7, read-out: Cytotoxicity, IC50, MCF-7
# [7] = MTT assay, T-47D, read-out: Cytotoxicity, IC50, T-47D
# [8] = MTT assay, MDA-MB-231, read-out: Cytotoxicity, IC50, MDA-MB-231
Structure (SMILES),"IC50 [1, 5]","IC50 [2, 6]","IC50 [3, 7]","IC50 [4, 8]","ED50, Erythrocytes (hemolytic activity) (human erythrocytes)","Selectivity Index (SI), T-47D [3]","Selectivity Index (SI), MDA-MB-231 [4]",also measured
"CO[C@@H]1[C@@H](O)[C@H](O[C@@H]2[C@@H](O)[C@H](O[C@@H]3CO[C@@H](O[C@H]4CC[C@]5(C)C6=CCC78C(=O)O[C@@](C)([C@@H](CCC(C)C)OC(C)=O)[C@H]7[C@@H](OC(C)=O)C[C@@]8(C)[C@@H]6CC[C@H]5C4(C)C)[C@H](O[C@@H]4O[C@H](C)[C@@H](O[C@@H]5OC[C@@H](O)[C@H](O[C@@H]6O[C@H](CO)[C@@H](O)[C@H](OC)[C@H]6O)[C@H]5O)[C@H](O)[C@H]4O)[C@H]3O)O[C@H](CO)[C@H]2O)O[C@H](CO)[C@H]1O (stereo partly shown) [Cladoloside C1 (14), cladoloside C1]",> 20 µM,> 20 µM,> 20 µM,15.3 ± 0.71 µM,–,–,–,"ED50, Erythrocytes (hemolytic activity) (human erythrocytes; listed as C1 (14)): 0.15 ± 0.02 µM; ED50, Erythrocytes (hemolytic activity) (human erythrocytes; listed as cladoloside C1 (14)): 0.15 µM"
"C=C(C)CCC[C@]1(C)OC(=O)C23CC=C4[C@@H](CC[C@H]5C(C)(C)[C@@H](O[C@@H]6OC[C@@H](O[C@@H]7O[C@H](CO)[C@@H](O)[C@H](O[C@@H]8O[C@H](COS(=O)(=O)[O-])[C@@H](O)[C@H](OC)[C@H]8O)[C@H]7O)[C@H](O)[C@H]6O[C@@H]6O[C@H](C)[C@@H](O[C@@H]7OC[C@@H](O)[C@H](O[C@@H]8O[C@H](CO)[C@@H](O)[C@H](OC)[C@H]8O)[C@H]7O)[C@H](O)[C@H]6O)CC[C@]45C)[C@]2(C)CC(=O)[C@@H]31.[Na+] (stereo partly shown) [Cladoloside L1 (33), Cladoloside L1]",17.9 ± 1.12 µM,12.7 ± 1.01 µM,9.03 ± 0.81 µM,13.4 ± 1.08 µM,0.20 ± 0.02 µM,1.98,1.34,"Hemolytic (membranolytic) activity, in words (human erythrocytes): strong hemolytics; Selectivity Index (SI), MCF-7 [2]: 1.41"
"C=C(C)CC[C@@H](OC(C)=O)[C@]1(C)OC(=O)C23CC=C4[C@@H](CC[C@H]5C(C)(C)[C@@H](O[C@@H]6OC[C@@H](O[C@@H]7O[C@H](CO)[C@@H](O)[C@H](O)[C@H]7O)[C@H](O)[C@H]6O[C@@H]6O[C@H](C)[C@@H](O[C@@H]7OC[C@@H](O)[C@H](O[C@@H]8O[C@H](COS(=O)(=O)[O-])[C@@H](O)[C@H](OC)[C@H]8O)[C@H]7O)[C@H](O)[C@H]6O)CC[C@]45C)[C@]2(C)C[C@H](OC(C)=O)[C@@H]31.[Na+] (stereo partly shown) [I2 (29), cladoloside I2]",–,–,–,–,4.24 ± 0.31 µM,–,–,"ED50, Erythrocytes (hemolytic activity) (human erythrocytes; listed as cladoloside I2 (29)): 4.24 µM; IC50 [1]: > 20 µM; IC50 [2]: > 20 µM; IC50 [3]: > 20 µM; IC50 [4]: > 20 µM"
"C=C(C)CCC[C@]1(C)OC(=O)C23CC=C4[C@@H](CC[C@H]5C(C)(C)[C@@H](O[C@@H]6OC[C@@H](O[C@@H]7O[C@H](CO)[C@@H](O)[C@H](O[C@@H]8O[C@H](COS(=O)(=O)[O-])[C@@H](O)[C@H](OC)[C@H]8O)[C@H]7O)[C@H](O)[C@H]6O[C@@H]6O[C@H](C)[C@@H](O[C@@H]7OC[C@@H](O)[C@H](O)[C@H]7O)[C@H](O)[C@H]6O)CC[C@]45C)[C@]2(C)CC(=O)[C@@H]31.[Na+] (stereo partly shown) [Cladoloside J1 (30), Cladoloside J1]",> 20 µM,> 20 µM,> 20 µM,6.18 ± 0.54 µM,1.10 ± 0.10 µM,–,>3.24,–
"CO[C@@H]1[C@@H](O)[C@H](O[C@@H]2[C@@H](O)[C@H](O[C@@H]3CO[C@@H](O[C@H]4CC[C@]5(C)C6=CCC78C(=O)O[C@@](C)([C@@H](CCC(C)C)OC(C)=O)[C@H]7[C@@H](OC(C)=O)C[C@@]8(C)[C@@H]6CC[C@H]5C4(C)C)[C@H](O[C@@H]4O[C@H](C)[C@@H](O[C@@H]5OC[C@@H](O)[C@H](O[C@@H]6O[C@H](CO)[C@@H](O)[C@H](OC)[C@H]6O)[C@H]5O)[C@H](O)[C@H]4O)[C@H]3O)O[C@H](C)[C@H]2O)O[C@H](CO)[C@H]1O (stereo partly shown) [Cladoloside H1 (26), Cladoloside H1]",> 20 µM,15.9 ± 1.14 µM,13.2 ± 0.72 µM,2.47 ± 0.32 µM,0.21 ± 0.02 µM,–,–,"Toxicity to normal mammary cells MCF-10A, in words ([1]; MCF-10A): non-toxic"
"CO[C@@H]1[C@@H](O)[C@H](O[C@@H]2[C@@H](O)[C@H](O[C@H]3[C@H](O)[C@@H](O)[C@H](O[C@H]4[C@H](O[C@H]5CC[C@]6(C)C7=CCC89C(=O)O[C@@](C)([C@@H](CCC(C)C)OC(C)=O)[C@H]8[C@@H](OC(C)=O)C[C@@]9(C)[C@@H]7CC[C@H]6C5(C)C)OC[C@@H](O[C@@H]5O[C@H](CO)[C@@H](O)[C@H](O)[C@H]5O)[C@@H]4O)O[C@@H]3C)OC[C@H]2O)O[C@H](CO)[C@H]1O (stereo partly shown) [Cladoloside B1 (11), cladoloside B1]",> 20 µM,> 20 µM,13 ± 1.07 µM,10.1 ± 1 µM,–,>1.54,>1.98,"ED50, Erythrocytes (hemolytic activity) (human erythrocytes; listed as B1 (11)): 0.55 ± 0.04 µM; ED50, Erythrocytes (hemolytic activity) (human erythrocytes; listed as cladoloside B1 (11)): 0.55 µM"
"CO[C@@H]1[C@@H](O)[C@H](O[C@@H]2[C@@H](O)[C@H](O[C@@H]3CO[C@@H](O[C@H]4CC[C@]5(C)C6=CCC78C(=O)O[C@@](C)([C@@H](CCC(C)C)OC(C)=O)[C@H]7[C@@H](OC(C)=O)C[C@@]8(C)[C@@H]6CC[C@H]5C4(C)C)[C@H](O[C@@H]4O[C@H](C)[C@@H](O[C@@H]5OC[C@@H](O)[C@H](O[C@@H]6O[C@H](COS(=O)(=O)[O-])[C@@H](O)[C@H](OC)[C@H]6O)[C@H]5O)[C@H](O)[C@H]4O)[C@H]3O)O[C@H](CO)[C@H]2O)O[C@H](CO)[C@H]1O.[Na+] (stereo partly shown) [Cladoloside K1 (31), cladoloside K1]",> 20 µM,> 20 µM,12.1 ± 1 µM,5.83 ± 0.41 µM,–,>1.65,–,"ED50, Erythrocytes (hemolytic activity) (human erythrocytes; listed as K1 (31)): 0.31 ± 0.02 µM; ED50, Erythrocytes (hemolytic activity) (human erythrocytes; listed as cladoloside K1 (31)): 0.31 µM"
CO[C@@H]1[C@@H](O)[C@H](O[C@@H]2[C@@H](O)[C@H](O[C@H]3[C@H](O)[C@@H](O)[C@H](O[C@H]4[C@H](O[C@H]5CC[C@]6(C)C7=CCC89C(=O)O[C@@](C)([C@@H](CCC(C)C)OC(C)=O)[C@H]8[C@@H](OC(C)=O)C[C@@]9(C)[C@@H]7CC[C@H]6C5(C)C)OC[C@@H](O)[C@@H]4O)O[C@@H]3C)OC[C@H]2O)O[C@H](CO)[C@H]1O (stereo partly shown) [A1 (5)],–,–,–,–,6.17 ± 0.51 µM,–,–,IC50 [1]: > 20 µM; IC50 [2]: > 20 µM; IC50 [3]: > 20 µM; IC50 [4]: > 20 µM
"C=C(C)CC[C@@H](OC(C)=O)[C@]1(C)OC(=O)C23CC=C4[C@@H](CC[C@H]5C(C)(C)[C@@H](O[C@@H]6OC[C@@H](O[C@@H]7OC[C@@H](O)[C@H](O[C@@H]8O[C@H](CO)[C@@H](O)[C@H](O)[C@H]8O)[C@H]7O)[C@H](O)[C@H]6O[C@@H]6O[C@H](C)[C@@H](O[C@@H]7OC[C@@H](O)[C@H](O[C@@H]8O[C@H](CO)[C@@H](O)[C@H](OC)[C@H]8O)[C@H]7O)[C@H](O)[C@H]6O)CC[C@]45C)[C@]2(C)C[C@H](OC(C)=O)[C@@H]31 (stereo partly shown) [Cladoloside D (18), Cladoloside D]",> 20 µM,15.3 ± 0.94 µM,14.9 ± 0.85 µM,2.98 ± 0.24 µM,0.29 µM,>1.34,>6.7,"Hemolytic (membranolytic) activity, in words (human erythrocytes): high activity; ED50, Erythrocytes (hemolytic activity) (human erythrocytes; listed as D (18)): 0.29 ± 0.03 µM; Toxicity to normal mammary cells MCF-10A, in words ([1]; MCF-10A): non-toxic; Selectivity Index (SI), MCF-7 [2]: >1.31"
"C=C(C)CC[C@@H](OC(C)=O)[C@]1(C)OC(=O)C23CC=C4[C@@H](CC[C@H]5C(C)(C)[C@@H](O[C@@H]6OC[C@@H](O)[C@H](O)[C@H]6O[C@@H]6O[C@H](C)[C@@H](O[C@@H]7OC[C@@H](O)[C@H](O[C@@H]8O[C@H](CO)[C@@H](O)[C@H](OC)[C@H]8O)[C@H]7O)[C@H](O)[C@H]6O)CC[C@]45C)[C@]2(C)C[C@H](OC(C)=O)[C@@H]31 (stereo partly shown) [A2 (6), cladoloside A2]",> 20 µM,> 20 µM,> 20 µM,> 20 µM,2.78 ± 0.32 µM,–,–,"Hemolytic (membranolytic) activity, in words (human erythrocytes): moderate activity"
"COC1C(O)C(CO)OC(OC2C(O)COC(OC3C(C)OC(OC4C(OC5CCC6(C)C7=CCC89C(=O)OC(C)(CC=CC(C)(C)O)C8C(=O)CC9(C)C7CCC6C5(C)C)OCC(O)C4O)C(O)C3O)C2O)C1O (stereo not shown) [A5 (9), cladoloside A5]",> 20 µM,> 20 µM,> 20 µM,> 20 µM,7.19 ± 0.53 µM,–,–,"ED50, Erythrocytes (hemolytic activity) (human erythrocytes; listed as cladoloside A5 (9)): 7.19 µM"

# Source: publication PMC12299463, “Cladolosides of Groups S and T: Triterpene Glycosides from the Sea Cucumber Cladolabes schmeltzii with Unique Sulfation; Human Breast Cancer Cytotoxicity and QSAR” (Marine Drugs, 2025)
